In PubChem BioAssay (NCI) one finds TGI data, which are given here for 37 compounds.

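Results reflect a 48-hour exposure of cells in 96-well plates to compound at five concentrations. TGI denotes the concentration required for complete inhibition of growth.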

Among the test systems are HT29 colon; SN12C renal; DLD-1 colon; DMS 114 small cell lung; DMS 273 small cell lung; HOP-18 NSCLC; KM20L2 colon; LXFL 529 NSCLC; M19-MEL melanoma; SNB-78 CNS; XF 498 CNS.
Common to all, as to test: NCI tumour cell line growth inhibition, 48 h

Turning to `Cc1c(N2C(=O)/C(=C/C=C/c3ccccc3)N=C2c2ccccc2)c(=O)n(-c2ccccc2)n1C`, the figures for the TGI in the assay on HT29 colon and with SN12C renal were 54 µM and 69 µM, respectively.
On to `NC(=S)/N=C/c1c(O)c2ccccc2oc1=O`, for which the TGI with DLD-1 colon, in the assay on DMS 114 small cell lung, in the assay with DMS 273 small cell lung, in the assay on HOP-18 NSCLC, in the assay with HT29 colon and in the assay on KM20L2 colon was above 100 µM in each case. Moreover, the TGI in the assay with LXFL 529 NSCLC, with M19-MEL melanoma, in the assay on SN12C renal, with SNB-78 CNS and in the assay with XF 498 CNS was above 100 µM each time.
As for `O=c1c2ccccc2nc2n1NC(c1c(Cl)cccc1Cl)N2c1cccc(Cl)c1` (stereo not drawn), the TGI with HT29 colon was above 100 µM; in the assay with SN12C renal, 21.9 µM.
As to `CC1C(c2ccc(F)cc2)c2cc3c(cc2OC1N1CCCC1)OCO3` (stereo not drawn), the TGI in the assay with HT29 colon and in the assay with SN12C renal was above 100 µM throughout.
As for `C=CC1(C)CCC(C(C)C(=O)C(C=C(C)C)OC(C)=O)C12C(=O)Oc1ccccc1C2=O` (stereo not drawn), the TGI in the assay on DLD-1 colon, in the assay on DMS 114 small cell lung, in the assay on DMS 273 small cell lung, with HOP-18 NSCLC, in the assay on HT29 colon and in the assay on KM20L2 colon was above 100 µM in each case. In addition, the TGI with LXFL 529 NSCLC, in the assay on M19-MEL melanoma, in the assay on SN12C renal, in the assay with SNB-78 CNS and with XF 498 CNS was above 100 µM each time.
Consider `CCC1(C)C=Cc2c(cc(OC)c3c(=O)c4ccccc4n(C)c23)O1` (stereo not drawn), for which the TGI with HT29 colon and in the assay on SN12C renal was above 10 µM each time.
For the compound `CC(=O)N=C(N=Nc1c(O)[nH]c2ccc(C)cc12)NC(C)=O`, the TGI with HT29 colon and in the assay on SN12C renal was above 100 µM in each case.
Take `CCOc1c2ccsc2c(OCC)c2ccsc12`: the TGI with HT29 colon was above 36 µM; in the assay on SN12C renal, above 100 µM.
For `O=C(O)CC(C(=O)O)c1ccccc1[N+](=O)[O-]` (stereo not drawn) the same measures were above 100 µM and above 100 µM.
Turning to `NCc1ccc(-c2ccc(-c3ccc(-c4ccc(CN)s4)s3)s2)s1`, the TGI in the assay on HT29 colon and with SN12C renal was above 100 µM throughout.
Turning to `CSc1ccc2c(cc1=O)[C@@H](NC(C)=O)CCc1cc(O)c(O)c(O)c1-2`, the TGI is 29.2 µM in the assay with HT29 colon and above 100 µM in the assay on SN12C renal.
Regarding `CCOC(=O)C1(C(=O)OCC)C[C@]23OCCC(=O)[C@H]2[C@H]2C(=O)OC(C)(C)O[C@]23C1`, the TGI in the assay with HT29 colon and in the assay on SN12C renal was above 100 µM in each case.
In the assay with HT29 colon, `Cc1cc(-c2ccc(C(=O)O)[nH]2)on1` had a TGI above 100 µM.
With `CCOC(=O)CC(=O)NC1CC2CCC1(C)C2(C)C` (stereo not drawn), the TGI in the assay on HT29 colon and with SN12C renal was above 100 µM each time.
Take `Cc1[nH]c2ncn3nc(C(Cl)(Cl)Cl)nc3c2c1Cc1ccccc1`: the TGI with HT29 colon and with SN12C renal was above 100 µM in each case.
On to `COc1c2c(c(OC)c3c1c(=O)c1ccccc1n3C)OCO2`, for which the TGI in the assay with HT29 colon and in the assay on SN12C renal was above 100 µM throughout.
For `CCOC(=O)c1cc2cc(N(C(C)=O)C(C)=O)ccc2s1`, the TGI is 67.9 µM in the assay on HT29 colon and 71.2 µM with SN12C renal.
`O=C(OCCN=C1c2ccccc2CCc2ccccc21)c1cc([N+](=O)[O-])cc([N+](=O)[O-])c1`: the TGI in the assay on HT29 colon and with SN12C renal was above 31.6 µM in each case.
On to `CC(C)(C)OC(=O)[N+](=N)C(=O)C1CCC(=O)N1C(=O)OCc1ccccc1` (stereo not drawn), for which the TGI in the assay on HT29 colon and in the assay with SN12C renal was above 100 µM throughout.
Take `Cc1ccc(-c2c(C#N)c(-c3ccc(Cl)cc3)c(C#N)c(=O)n2NS(=O)(=O)c2ccccc2)cc1`: the TGI in the assay on HT29 colon and in the assay on SN12C renal was above 100 µM each time.
Turning to `Cn1c(=O)oc2cc(C(=O)CSC(=S)N3CCCCCC3)ccc21`, the TGI in the assay with HT29 colon is 36.7 µM; with SN12C renal, above 100 µM.
Taken in the same sequence, the figures for `CCOC(=O)CN1CCNCCN(CC(=O)OCC)CCNCC1` were above 100 µM and above 100 µM.
`CC(=O)/C(C=Nc1c(C)n(C)n(-c2ccccc2)c1=O)=C(/C)O` displayed a TGI with SN12C renal above 100 µM.
In the case of `CCOC(=O)c1nc2cc(N3CCOCC3)c(F)cc2[nH]c1=O`, the TGI in the assay with HT29 colon and in the assay on SN12C renal was above 100 µM each time.
As to `O=c1c(O)c(-c2ccc(O)cc2O)oc2cc(O)cc(O)c12`, the TGI in the assay with HT29 colon and in the assay on SN12C renal was above 100 µM in each case.
Turning to `CC1=C(/C=C/C(C)=C/C=C/C(C)=C/C(=O)OCC2OC(n3cc(F)c(=O)[nH]c3=O)CC2OC(=O)/C=C(C)/C=C/C=C(C)/C=C/C2=C(C)CCCC2(C)C)C(C)(C)CCC1` (stereo not drawn), the figures for the TGI in the assay with HT29 colon and in the assay on SN12C renal were above 100 µM and above 31.6 µM, respectively.
Regarding `CNc1ncnc(Sc2nc(N)nc3nc[nH]c23)c1[N+](=O)[O-]`, the TGI is above 49.5 µM in the assay with HT29 colon and 11.9 µM in the assay on SN12C renal.
Consider `CCOC(=O)c1c(C)n(Cc2ccccc2)c(=O)c2ccccc2c(=O)c2c(=O)ccc(=O)c1=2`, for which the TGI in the assay on HT29 colon and in the assay on SN12C renal was above 100 µM in each case.
`CCN(CC)CCn1c(C(C)(C)C)nc2ccccc21`: the TGI in the assay with HT29 colon and with SN12C renal was above 100 µM throughout.
For the compound `CN(C1=NCCO1)c1cccc2ccccc12`, the TGI with HT29 colon and in the assay with SN12C renal was above 10 µM in each case.
Turning to `CCOP(=O)(OCC)C(NC(=O)OCC(Cl)(Cl)Cl)n1nnc(C(=O)OC)c1C(=O)OC` (stereo not drawn), the TGI in the assay with HT29 colon was above 100 µM.
In the case of `NC(=O)NC(=O)c1cnccn1`, the TGI in the assay with SN12C renal was above 100 µM.
For the compound `CN(C)CCCNc1c(O)c2c(c(O)c1Cl)C(=O)C=CC2=O`, the TGI with HT29 colon was 4.27 µM; in the assay with SN12C renal, 3.2 µM.
As for `Cc1ccc(/C=C2\CN(C)CC3=C2OC(N)=C(C#N)C3c2ccc(C)cc2)cc1` (stereo not drawn), the TGI came out at 34.2 µM in the assay on HT29 colon and 35.3 µM in the assay on SN12C renal.
Taken in the same sequence, the figures for `O=C(NN=C1CCN(Cc2ccccc2)CC1)C(O)(c1ccccc1)c1ccccc1` were above 100 µM and above 100 µM.
For `Cc1cc2nc3n[nH]c(N)c3nc2cc1C`, the TGI with HT29 colon and in the assay on SN12C renal was above 100 µM throughout.
In the case of `CNC(=S)/C(=N\Nc1nc[nH]c1C(N)=O)C(N)=S`, the TGI with HT29 colon is above 100 µM; with SN12C renal, 18.9 µM.
